Laboratory results reported in patent US7951814B2, “Quinazolinedione derivatives as TRPA1 modulators” (Glenmark Pharmaceuticals, S.A., priority 2008, dated 2011).
pIC50: −log10 of the molar value.

Biological target: T1, Human TRPA1 expressing CHO cells (Homo sapiens, UniProt O75762)
T1 construct: expressed in transfected cells; host or cells: CHO cells (under G-418 selection)
Assay: 45Calcium uptake assay: inhibition of AITC induced cellular uptake of radioactive calcium
Format: cell-based
Settings: AITC 30 μM, human TRPA1 CHO cells; for inhibition at 1 µM: 1.0 μM test compound, read-out: Percentage inhibition at 1.0 μM; for inhibition at 10 µM: 10.0 μM test compound, read-out: Percentage inhibition at 10.0 μM; for pIC50: read-out: IC50 value (range)
Procedure: The illustrative examples of the present invention are screened for TRPA1 activity according to a modified procedure described in (a) Tóth, A. et al. Life Sciences (2003), 73, 487-498. ([…]. et al. Proc. Natl. Acad. Sci. U.S.A., (2007), 104, 13525-13530. The screening of the compounds can be carried out by other methods and procedures known to persons skilled in the art. Screening for TRPA1 Antagonist Using the ^45Calcium Uptake Assay The inhibition of TRPA1 receptor activation was measured as inhibition of allyl isothiocyanate (AITC) induced cellular uptake of radioactive calcium. […] Final concentration of DMSO in the reaction was 0.5% (v/v). […] Cells were seeded 24 h prior to the assay in 96 well plates so as to get 50,000 cells per well on the day of experiment. Cells were treated with test compounds for 10 min followed by addition of AITC at a final concentration of 30 μM and 5 μCi/ml ^45Ca^+2 for 3 min. […] Radioactivity in the lysate was measured in Packard Top count after addition of liquid scintillant. Concentration response curves were plotted as a % of maximal response obtained in the absence of test antagonist. IC50 value was calculated from concentration response curve by nonlinear regression analysis using GraphPad PRISM software.

T1 sequence (O75762 whole entry): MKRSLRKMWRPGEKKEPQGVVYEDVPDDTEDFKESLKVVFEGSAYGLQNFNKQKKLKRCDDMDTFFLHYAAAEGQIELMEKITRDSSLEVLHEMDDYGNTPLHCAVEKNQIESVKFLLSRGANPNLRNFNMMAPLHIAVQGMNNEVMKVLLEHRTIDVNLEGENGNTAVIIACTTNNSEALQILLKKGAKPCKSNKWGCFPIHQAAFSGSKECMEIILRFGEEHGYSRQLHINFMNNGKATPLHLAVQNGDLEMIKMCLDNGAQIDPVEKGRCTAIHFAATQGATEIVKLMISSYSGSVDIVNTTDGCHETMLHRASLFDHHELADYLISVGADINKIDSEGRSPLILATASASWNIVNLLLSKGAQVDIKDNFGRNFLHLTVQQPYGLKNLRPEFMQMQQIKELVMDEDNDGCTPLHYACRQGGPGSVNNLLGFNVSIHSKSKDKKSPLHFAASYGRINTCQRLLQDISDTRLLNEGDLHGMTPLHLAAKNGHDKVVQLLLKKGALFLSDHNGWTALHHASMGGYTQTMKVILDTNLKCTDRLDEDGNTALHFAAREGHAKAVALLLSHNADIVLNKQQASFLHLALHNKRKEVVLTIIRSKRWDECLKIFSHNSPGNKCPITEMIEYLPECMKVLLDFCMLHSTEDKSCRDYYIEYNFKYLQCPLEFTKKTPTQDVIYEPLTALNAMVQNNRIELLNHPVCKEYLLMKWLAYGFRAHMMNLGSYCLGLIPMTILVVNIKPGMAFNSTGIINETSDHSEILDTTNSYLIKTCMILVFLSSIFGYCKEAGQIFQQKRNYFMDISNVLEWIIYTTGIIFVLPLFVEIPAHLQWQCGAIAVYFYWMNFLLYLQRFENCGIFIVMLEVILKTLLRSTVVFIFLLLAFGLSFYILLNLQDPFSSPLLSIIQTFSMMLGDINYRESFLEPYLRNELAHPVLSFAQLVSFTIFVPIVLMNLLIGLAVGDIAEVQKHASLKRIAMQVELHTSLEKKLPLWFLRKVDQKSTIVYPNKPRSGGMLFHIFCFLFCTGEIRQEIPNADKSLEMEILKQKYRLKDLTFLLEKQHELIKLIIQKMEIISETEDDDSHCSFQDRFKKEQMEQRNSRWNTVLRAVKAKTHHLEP

| inhibition at 1 µM [%] | inhibition at 10 µM [%] | pIC50 | Compound |
| --- | --- | --- | --- |
| 85 | 99.8 | < 7.00 | Cn1c(=O)c2c(CC(=O)Nc3nc(-c4cc(C(F)(F)F)ccc4Cl)cs3)cccc2n(C)c1=O [Example 56, N1-[4-(2-Chloro-5-trifuoromethylphenyl)-1,3-thiazol-2-yl]-2-(1,3-dimethyl-2,4-dioxo-1,2,3,4-tetrahydro-5-quinazolinyl)propanamide] |
| 98.9 | 99.8 | 7.00 to 7.30 | Cn1c(=O)c2c(CC(=O)Nc3nc(-c4ccc(C(C)(C)C)cc4)cs3)cccc2n(C)c1=O [Example 20, N1-[4-(4-tert-Butylphenyl)-1,3-thiazol-2-yl]-2-(1,3-dimethyl-2,4-dioxo-1,2,3,4-tetrahydro-5-quinazolinyl)acetamide] |
| 87.1 | 96.9 | < 7.00 | Cn1c(=O)c2c(CC(=O)Nc3nc(-c4cc(F)c(Cl)cc4Cl)cs3)cccc2n(C)c1=O [Example 63, N1-[4-(2,4-Dichloro-5-fluorophenyl)-1,3-thiazol-2-yl]-2-(1,3-dimethyl-2,4-dioxo-1,2,3,4-tetrahydro-5-quinazolinyl)acetamide] |
| 32.5 | 72.6 | – | Cn1c(=O)c2c(CC(=O)Nc3nc(-c4c[nH]c5ccccc45)cs3)cccc2n(C)c1=O [Example 73, N1-[4-(1H-3-Indolyl)-1,3-thiazol-2-yl]-2-(1,3-dimethyl-2,4-dioxo-1,2,3,4-tetrahydro-5-quinazolinyl)acetamide] |
| 1.31 | 41.3 | – | Cn1c(=O)c2c(CC(=O)Nc3nc(-c4ccc(OCC5CC5)c(F)c4)cs3)cccc2n(C)c1=O [Example 60, N1-[4-(4-Cyclopropylmethoxy-3-fluorophenyl)-1,3-thiazol-2yl]-2-(1,3-dimethyl-2,4-dioxo-1,2,3,4-tetrahydro-5-quinazolinyl)acetamide] |
| 17.2 | 29.6 | – | Cn1c(=O)n(CC2CC2)c(=O)c2c(CC(=O)Nc3nc(-c4ccc(C(C)(C)C)cc4)cs3)cccc21 [Example 27, N1-[4-(4-tert-Butylphenyl)-1,3-thiazol-2-yl]-2-(1-methyl-3-cyclopropylmethyl-2,4-dioxo-1,2,3,4-tetrahydro-5-quinazolinyl)acetamide] |
| 37.3 | 91 | – | Cc1sc(NC(=O)Cc2cccc3c2c(=O)n(C)c(=O)n3C)nc1-c1ccc(Cl)cc1 [Example 30, N1-[4-(4-Chlorophenyl)-5-methyl-1,3-thiazolyl]-2-(1,3-dimethyl-2,4-dioxo-1,2,3,4-tetrahydro-5-quinazolinyl)acetamide] |
| 96.8 | 100 | > 7.30 | Cn1c(=O)c2c(CC(=O)Nc3nc(-c4ccc(OCC(F)(F)F)c(F)c4)cs3)cccc2n(C)c1=O [Example 59, N1-{4-[3-fluoro-4-(2,2,2-trifluoroethoxy)phenyl]-1,3-thiazol-2yl}-2-(1,3-dimethyl-2,4-dioxo-1,2,3,4-tetrahydro-5-quinazolinyl)acetamide] |
| 3.81 | 8.12 | – | Cn1c(=O)c2c(CC(=O)Nc3cc(-c4ccc(Cl)cc4)n[nH]3)cccc2n(C)c1=O [Example 79, N1-[3-(4-Chlorophenyl)-1H,5-pyrazolyl]-2-(1,3-dimethyl-2,4-dioxo-1,2,3,4-tetrahydro-5-quinazolinyl)acetamide] |
| 79.2 | 94.7 | 7.00 to 7.30 | Cn1c(=O)c2c(CC(=O)Nc3nc(-c4ccc(I)cc4)cs3)cccc2n(C)c1=O [Example 13, N1-[4-(4-Iodophenyl)-1,3-thiazol-2yl]-2-(1,3-dimethyl-2,4-dioxo-1,2,3,4-tetrahydro-5-quinazolinyl)acetamide] |
| 33 | 28.5 | – | Cn1c(=O)c2c(CC(=O)Nc3nc4ccc(F)cc4s3)cccc2n(C)c1=O [Example 76, N1-[6-Fluorobenzo[d][1,3]thiazol-2-yl)-2-(1,3-dimethyl-2,4-dioxo-1,2,3,4-tetrahydro-5-quinazolinyl)acetamide] |
